Consider 15 molecules from PubChem BioAssay (NCI).

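Grown in 96-well plates, cells were treated for 48 hours with each compound at five concentrations. Insufficient inhibition: endpoint recorded as highest concentration tested. Here, GI50 denotes the concentration required for 50% inhibition of growth. TGI marks complete inhibition of growth.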

Among the test systems are NCI-H226 lung; SR leukemia; PC-3 prostate; SNB-75 CNS; MOLT-4 leukemia; IGROV1 ovarian; U251 CNS; SK-MEL-28 melanoma; COLO 205 colon; NCI-H522 lung.
What all share (assay): NCI-60 cell line screen, 48 h

For `COC(=O)C1(Cc2ccccc2)Cc2ccccc2C1`, the TGI in the experiment on NCI-H226 lung is 78.3 µM; with SR leukemia it was over 100 µM; in the experiment on PC-3 prostate it was over 100 µM; in the experiment with SNB-75 CNS it was 96.2 µM; in the experiment with MOLT-4 leukemia, 41.8 µM; in the experiment with IGROV1 ovarian, over 100 µM. Further, the TGI was 73.5 µM in the experiment with U251 CNS, over 100 µM in the experiment with SK-MEL-28 melanoma and 35.8 µM in the experiment with COLO 205 colon.
On to `NNC(=S)N1CCN(C(=S)NN)CC1`, for which the TGI in the experiment with NCI-H522 lung, with SR leukemia, with PC-3 prostate, with SNB-75 CNS, in the experiment with MOLT-4 leukemia and in the experiment with IGROV1 ovarian was over 100 µM throughout. Moreover, the TGI with U251 CNS, in the experiment with SK-MEL-28 melanoma and in the experiment with COLO 205 colon was over 100 µM in each case.
Consider `COc1c2cc(C(C)(C)C)cc1Cc1cccc(c1O)Cc1cc(C(C)(C)C)cc(c1OC)Cc1cccc(c1O)Cc1cc(C(C)(C)C)cc(c1OC)Cc1cccc(c1O)C2`, for which the TGI in the experiment on NCI-H522 lung, in the experiment on SR leukemia, in the experiment on PC-3 prostate, in the experiment on SNB-75 CNS, in the experiment on MOLT-4 leukemia and in the experiment with U251 CNS was over 100 µM throughout. For the same molecule, the TGI with SK-MEL-28 melanoma and in the experiment on COLO 205 colon was over 100 µM throughout.
Consider `CC(=O)N1CCN(C23OC4(N5CCN(C(C)=O)CC5)C5C6CC(C7C6C4C72)C53)CC1` (stereo not drawn), for which the TGI with NCI-H226 lung, with NCI-H522 lung, in the experiment with SR leukemia, in the experiment with PC-3 prostate, in the experiment with SNB-75 CNS and in the experiment with MOLT-4 leukemia was over 100 µM each time. Moreover, the TGI in the experiment with IGROV1 ovarian, with U251 CNS and with COLO 205 colon was over 100 µM throughout.
`COc1cc(C2S/C(=C/c3ccccc3)C(=O)N2c2ccc(Cl)c(Cl)c2)cc(OC)c1OC` (stereo not drawn): the TGI in the experiment with NCI-H226 lung was over 100 µM; in the experiment with NCI-H522 lung, 51.4 µM; in the experiment on SR leukemia, over 100 µM; in the experiment with PC-3 prostate it was over 100 µM; in the experiment with MOLT-4 leukemia, over 100 µM; in the experiment with IGROV1 ovarian it was over 100 µM. Moreover, the TGI with U251 CNS, in the experiment on SK-MEL-28 melanoma and in the experiment with COLO 205 colon was over 100 µM in each case.
Regarding `O=C(N[C@H]1c2ccsc2/C(=N/O)[C@H]1O)C(F)(F)F`, the TGI with NCI-H226 lung, in the experiment on SR leukemia, with PC-3 prostate, in the experiment on SNB-75 CNS, in the experiment with MOLT-4 leukemia and in the experiment on IGROV1 ovarian was over 100 µM in each case. Also, the TGI with U251 CNS, in the experiment with SK-MEL-28 melanoma and in the experiment on COLO 205 colon was over 100 µM throughout.
For `COc1ccc2c(c1)/c(=C/c1ccc(N(C)C)cc1)c1cc(-c3ccccc3)[n+](C)n12`, the TGI with NCI-H226 lung worked out at 0.785 µM; in the experiment with SR leukemia it was 2.84 µM; in the experiment on PC-3 prostate it was 1.09 µM; in the experiment with SNB-75 CNS it was 0.327 µM; in the experiment with MOLT-4 leukemia, 4.92 µM; in the experiment with IGROV1 ovarian it was 0.543 µM. The TGI in the experiment with U251 CNS was 1.6 µM; in the experiment with SK-MEL-28 melanoma, 2.31 µM. Besides, the GI50 in the experiment with MOLT-4 leukemia was 142 nM.
On to `Cc1c(-c2ccccc2)c(C#N)c2nnc(C(N)=O)c(N)n12`, for which the TGI in the experiment on NCI-H522 lung, with SR leukemia, with PC-3 prostate, in the experiment with MOLT-4 leukemia, in the experiment on IGROV1 ovarian and in the experiment on U251 CNS was over 100 µM in each case. The TGI with SK-MEL-28 melanoma and with COLO 205 colon was over 100 µM throughout.
For `Nc1cc(N2CCCC2)nc(=O)n1Cc1ccccc1`, the TGI in the experiment on NCI-H226 lung, in the experiment with NCI-H522 lung, in the experiment with SR leukemia, with PC-3 prostate, with SNB-75 CNS and in the experiment with MOLT-4 leukemia was over 100 µM each time. Besides, the TGI in the experiment with IGROV1 ovarian, in the experiment on U251 CNS and in the experiment on COLO 205 colon was over 100 µM each time.
Take `CN(C)CCNc1ncnc2nc(-c3ccc4ccccc4c3)[nH]c12`: the TGI in the experiment with NCI-H226 lung, in the experiment on NCI-H522 lung, with SR leukemia, with PC-3 prostate, in the experiment with MOLT-4 leukemia and in the experiment on IGROV1 ovarian was over 100 µM each time. Further, the TGI in the experiment on U251 CNS, in the experiment with SK-MEL-28 melanoma and in the experiment with COLO 205 colon was over 100 µM in each case.
`O=c1[nH]nc(Cc2ccccc2)n1-n1cnnc1`: the TGI in the experiment on NCI-H522 lung, in the experiment on SR leukemia, in the experiment with PC-3 prostate, in the experiment on SNB-75 CNS, with MOLT-4 leukemia and in the experiment on IGROV1 ovarian was over 100 µM in each case. Besides, the TGI in the experiment with U251 CNS, in the experiment on SK-MEL-28 melanoma and with COLO 205 colon was over 100 µM each time.
Turning to `CC(C)N(C)C(=O)C12C3C4C1C1C2C3C41C#N` (stereo not drawn), the TGI with NCI-H522 lung, with SR leukemia, in the experiment on PC-3 prostate, in the experiment with SNB-75 CNS, with MOLT-4 leukemia and in the experiment with IGROV1 ovarian was over 100 µM throughout. The TGI in the experiment with U251 CNS, with SK-MEL-28 melanoma and in the experiment on COLO 205 colon was over 100 µM throughout.
For the molecule `CCOc1cc(C2CC(c3ccc(NS(=O)(=O)c4cc([N+](=O)[O-])ccc4C)cc3)=NN2)ccc1O` (stereo not drawn), the TGI in the experiment on NCI-H226 lung was over 100 µM; in the experiment on NCI-H522 lung, over 100 µM; in the experiment with SR leukemia it was 53.6 µM; in the experiment with PC-3 prostate, over 100 µM; in the experiment with SNB-75 CNS it was 84 µM; with MOLT-4 leukemia it was 48.8 µM. In addition, the TGI is over 100 µM in the experiment on IGROV1 ovarian, over 100 µM in the experiment with SK-MEL-28 melanoma and 43 µM in the experiment on COLO 205 colon.
Regarding `COc1ccc(/C=C2\N=C(c3ccccc3)N(C3Nc4cc5c(cc4S3)NC(N3C(=O)/C(=C/c4ccc(OC)cc4)N=C3c3ccccc3)S5)C2=O)cc1` (stereo not drawn), the TGI with NCI-H226 lung was over 100 µM; in the experiment with NCI-H522 lung it was 45.2 µM; in the experiment with SR leukemia, over 100 µM; in the experiment on PC-3 prostate it was over 100 µM; in the experiment on SNB-75 CNS, 94.2 µM; in the experiment with MOLT-4 leukemia, over 100 µM. Moreover, the TGI with IGROV1 ovarian was over 100 µM; with U251 CNS it was 63.7 µM; in the experiment on SK-MEL-28 melanoma, over 100 µM.
Take `CC(=O)c1cc2ccccc2n(O)c1=N`: the TGI in the experiment on NCI-H226 lung, with NCI-H522 lung, with SR leukemia, in the experiment with PC-3 prostate, with MOLT-4 leukemia and in the experiment on IGROV1 ovarian was over 100 µM throughout. The TGI in the experiment on U251 CNS, in the experiment with SK-MEL-28 melanoma and in the experiment with COLO 205 colon was over 100 µM each time.
